Here are results for 23 compounds from US12448373B2, “Azetidinyl-acetamides as CXCR7 inhibitors” (CHEMOCENTRYX, INC., priority 2021, dated 2025).

A value given as a limit tells only on which side of the number the result lay.

In the experiment the target is T1, CXCR7 (Homo sapiens, UniProt P25106).
T1 construct: expressed in transfected cells; host or cells: CHO cells (CHO-CXCR7), transgenes maintained with Hygromycin B and G418
T1 sequence (P25106 whole entry): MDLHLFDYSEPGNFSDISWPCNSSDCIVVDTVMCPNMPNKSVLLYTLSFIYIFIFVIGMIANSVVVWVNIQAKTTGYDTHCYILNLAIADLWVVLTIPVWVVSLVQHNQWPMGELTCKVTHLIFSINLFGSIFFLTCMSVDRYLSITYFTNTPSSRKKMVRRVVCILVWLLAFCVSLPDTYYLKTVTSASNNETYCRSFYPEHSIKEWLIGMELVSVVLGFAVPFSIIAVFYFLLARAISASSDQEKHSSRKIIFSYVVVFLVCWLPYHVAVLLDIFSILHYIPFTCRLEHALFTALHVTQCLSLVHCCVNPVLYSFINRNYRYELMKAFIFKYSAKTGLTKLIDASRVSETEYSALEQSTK
As to the kind of experiment: CXCR7 β-arrestin recruitment assay in CHO-CXCR7 cells (ProLink/EA β-galactosidase complementation), induced by human SDF-1a. To be noted: assay buffer, SDF-1a at EC50 concentration. The format is cell-based. A digest of the protocol:
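SDF-1α-induced β-arrestin recruitment was measured by enzyme-fragment complementation (ProLink-CXCR7 with β-arrestin-EA) in stable CHO cells. Agonist was dosed at its EC50, determined the same day, alongside serially diluted compound for 1.5 h at 37 °C. Fluorogenic galactoside substrate (0.4 mM, 30 min) was read at 360/465 nm, with IC50 from 3-parameter nonlinear regression.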
The compound `CC(C)(NC(=O)CC1(NC(=O)c2cc(-c3ccc(F)cc3F)on2)CN([C@H]2CC[C@@](C)(O)CC2)C1)c1cccc(F)c1` [Example 1.290] showed an IC50 below 5 nM. In the case of `CC(C)(NC(=O)CC1(NC(=O)c2cc(-c3ccc(F)cc3F)on2)CN([C@H]2CC[C@](C)(O)CC2)C1)c1ccccc1C(F)(F)F` [Example 1.291], the IC50 is below 5 nM. `CC(C)(NC(=O)CC1(NC(=O)c2cc(-c3ccc(F)cc3F)on2)CN([C@H]2CC[C@@](C)(O)CC2)C1)c1ccccc1C(F)(F)F` [Example 1.292] yielded an IC50 below 5 nM.

Consider `Cc1cccc(C(C)(C)NC(=O)CC2(NC(=O)c3cc(-c4ccc(F)cc4F)on3)CN(C3CCCCC3)C2)n1` [Example 1.293], for which the IC50 is below 5 nM. As for `CC(C)(NC(=O)CC1(NC(=O)c2cc(-c3ccc(F)cc3F)on2)CN(C2CCC3(CC2)COC3)C1)c1ccccn1` [Example 1.294], the figure is below 5 nM; as for `COC[C@@H](NC(=O)CC1(NC(=O)c2cc(-c3ccc(F)cc3F)on2)CN(C2CCCCC2)C1)c1ccccc1` [Example 1.295], 100 to 1000 nM; as for `CC(C)(NC(=O)CC1(NC(=O)c2cc(-c3ccc(F)cc3F)on2)CN(C2CCC3(CCC3)CC2)C1)c1ccccn1` [Example 1.296], 100 to 1000 nM. As for `CC(C)(NC(=O)CC1(NC(=O)c2cc(-c3ccc(F)cc3F)on2)CN(C2CCCCC2)C1)c1cccc(F)n1` [Example 1.297], the figure is below 5 nM; as for `CC(C)(NC(=O)CC1(NC(=O)c2cc(-c3ccc(F)cc3F)on2)CN(C2CCCCC2)C1)c1ccc(F)cc1` [Example 1.298], 5 to 100 nM; as for `COC1CCC(N2CC(CC(=O)NC(C)(C)c3ccccn3)(NC(=O)c3cc(-c4ccc(F)cc4F)on3)C2)CC1` (centres unmarked) [Example 1.299], 5 to 100 nM. Compound `CC(C)(NC(=O)CC1(NC(=O)c2cc(-c3ccc(F)cc3F)on2)CN(C2CCC(O)CC2)C1)c1ccccn1` (centres unmarked) [Example 1.300] registered an IC50 of 5 to 100 nM. As for `CC(C)(NC(=O)CC1(NC(=O)c2cc(-c3ccc(F)cc3F)on2)CN(C2CCCCC2)C1)c1cccc(F)c1` [Example 1.301], the figure is below 5 nM.

`CC(C)(NC(=O)CC1(NC(=O)c2cc(-c3ccc(F)cc3F)on2)CN(C2CCCCC2)C1)c1ccccc1F` [Example 1.302]: the IC50 was below 5 nM. As for `CC(C)(NC(=O)CC1(NC(=O)c2cc(-c3ccc(F)cc3F)on2)CN([C@H]2CC[C@](C)(O)CC2)C1)c1ccccn1` [Example 1.303], the figure is below 5 nM; as for `CC[C@H](NC(=O)CC1(NC(=O)c2cc(-c3ccc(F)cc3F)on2)CN(C2CCCCC2)C1)c1ccccc1` [Example 1.304], 5 to 100 nM; as for `COC1CCCCC1N1CC(CC(=O)NC(C)(C)c2ccccn2)(NC(=O)c2cc(-c3ccc(F)cc3F)on2)C1` (centres unmarked) [Example 1.305], below 5 nM. The compound `O=C(CC1(NC(=O)c2cc(-c3ccc(F)cc3F)on2)CN(C2CCCCC2)C1)NC1(c2ccccn2)CC1` [Example 1.306] gave an IC50 of 5 to 100 nM. For the compound `CC[C@@H](NC(=O)CC1(NC(=O)c2cc(-c3ccc(F)cc3F)on2)CN(C2CCCCC2)C1)c1ccccc1` [Example 1.307], the IC50 lay in the range of 5 to 100 nM.

Regarding `CC(C)(NC(=O)CC1(NC(=O)c2cc(-c3ccc(F)cc3F)on2)CN(C2CCCCC2)C1)c1ccccc1C(F)(F)F` [Example 1.308], the IC50 is below 5 nM. As for `CC(C)(CO)NC(=O)CC1(NC(=O)c2cc(-c3ccc(F)cc3F)on2)CN(C2CCCCC2)C1` [Example 1.309], the figure is 100 to 1000 nM; as for `O=C(CC1(NC(=O)c2cc(-c3ccc(F)cc3F)on2)CN(C2CCCCC2)C1)N[C@@H](CO)c1ccccc1` [Example 1.310], 1000 to 20000 nM; as for `CC(C)(NC(=O)CC1(NC(=O)c2cc(-c3ccc(F)cc3F)on2)CN(C2CCCCC2(F)F)C1)c1ccccn1` (centres unmarked) [Example 1.311], 5 to 100 nM. As for `CC(N1CC(CC(=O)NC(C)(C)c2ccccn2)(NC(=O)c2cc(-c3ccc(F)cc3F)on2)C1)C(F)(F)F` (centres unmarked) [Example 1.312], the figure is 1000 to 20000 nM.
